The subject of assay [1] is HOB cells. Nature of the assay: Cell adhesion assay (attachment and spreading) on FN or TG-FN matrix with RGD or RAD peptide. In kind it is cell-based, human. The note with it: for effect of PKCα inhibitors on the compensatory effect of P1 peptide on RGD-induced loss of cell adhesion: Go6976 5 μM, GK21 8 μM, P1 100 ug/ml, FN; for effect on the compensatory effects of TG-FN on attachment and spreading in the presence of RGD: HOB cells on TG-FN, peptide 100-400 μg/ml, RGD 150 μg/ml. As to the method:
The cell adhesion assay was carried out as previously described (Wang et al., 2010). Briefly, 96-well plastic tissue culture plates were coated with 5 μg/ml FN in 50 mM Tris-HCl, pH 7.4 at 4° C. overnight, after washing three times with 100 μl of 50 mM Tris-HCl, pH7.4, gplTG (20 μg/ml) in 2 mM EDTA in PBS, pH 7.4 was added to the wells for 1 h at 37° C. and the wells were washed three times with 50 mM Tris-HCl, pH7.4. Serum-starved (for 16 h) HOB cells with different treatments as introduced below in serum-free medium were detached by trypsinization and then treated with trypsin inhibitor. Cells were washed three times with serum free medium and seeded onto either FN or TG-FN matrix for 20-40 min. Peptides P1 or scrambled P1 (P1s), were added at concentrations between 100 μg/ml and 300 μg/ml. […] Attached cells were washed once with PBS, pH 7.4 and then fixed with 3.7% paraformaldehyde, further permeabilised with 0.1% (v/v) Triton® X-100 detergent in PBS, and co-stained with May-Grunwald and Giemsa stains as described previously (Jones et al., 1997). Images of stained cells from non-overlapping fields of view were photographed at 20× magnification and analyzed using the imaging analysis program Scion Image (National Institute of Health). Cell attachment and spreading were quantified, and the number of cells per image was assessed as described previously (Telci et al., 2008). Cell attachment on FN without peptide was considered as the control value for all the experiments unless stated otherwise. The mean number of attached cells form three wells was calculated and that of the control was considered as 100%. The mean number of attached cells (cell attachment) for each sample was then expressed as the percentage of cell attachment on FN. The mean percentage of attached cells that are spread (cell spreading) for each sample was determined separately, and the mean percentage of spread cells on FN control was expressed as 100%. The mean percentage of spread cells for each sample was then normalised against that of FN control Cell attachment on FN without the RGD peptide was considered as the control value for most of the experiments unless stated otherwise The mean number of attached cells from three wells was calculated and that of the control was considered as 100%. The mean number of attached cells (cell attachment) for each sample was then expressed as the percentage of cell attachment on FN. The mean percentage of attached cells that are spread (cell spreading) for each sample was determined separately, and the mean percentage of spread cells on the FN control was expressed as 100%. The mean percentage of spread cells for each sample was then normalised against that of FN control Cell pre-treatments included: PKCα inhibitor Go6976 (5 μM) or GK21 peptide (8 μM) for 1 h in serum-free medium prior to cell detachment; heparinase (15 mU/ml) or chondroitinase (15 mU/ml) to cells in suspension in serum free medium for 1 h. For the detection of the signalling molecules via Western blotting, the cell adhesion assay was performed in 60 mm Petri dishes and cells were collected into cell lysis buffer (Santa Cruz, UK) as described previously and pre-cleared by centrifugation at 300×g for 10 min. Western blotting was performed with specific anti-p-397 FAK or p-ERK1/2 antibodies. Membranes were stripped (Telci et al., 2008) and total FAK and ERK1/2 detected using anti-FAK and anti-ERK1/2 antibodies as listed in Table 2, while α-tubulin was used as an equal loading standard (Wang et al., 2011).
Cell adhesion and spreading assays were performed as described above in Example 1 method ‘Cell adhesion assay’

Assay [2] is described as follows: Binding of TG2 to heparin SEPHAROSE, elution with NaCl gradient. The note with it: for NaCl concentration of optimum elution / major peak from heparin SEPHAROSE: lysate of HEK293T/17 cells, 0-1M NaCl gradient. As to the method: HEK cells, transiently transfected with wild-type and mutant TG2 were washed twice with ice cold PBS, pH 7.4 and lysed by the addition of 150 μl of 20 mM Tris-HCl pH 7.4, 10 mM EGTA, 2 mM EDTA, 1 mM NaF and 1 mM Na3VO4. After clarification by centrifugation, lysates were mixed with 450 μl of 50 mM Tris-HCl, 1 mM EDTA, 1 mM DTT, pH 7.5 and applied to a 5 ml Heparin SEPHAROSE® column (GE Healthcare) equilibrated in 50 mM Tris-HCl, 1 mM EDTA, 1 mM DTT pH 7.5 (buffer) at a flow rate of 1 ml/min. For the analysis of GTP-bound TG2 (closed conformation), lysates were pre-incubated for 1 h at room temperature with 0.5 mM GTP in 50 mM Tris-HCl, 2 mM MgCl2, 1 mM EDTA, 1 mM DTT pH 7.5. For the analysis of inhibitor-reacted TG2 (open conformation), lysates were incubated with 0.5 mM of irreversible inhibitor R281 (Griffin et al., 2008) and 10 mM CaCl2. The column was washed with 25 ml of buffer and protein was eluted with a linear gradient of increasing NaCl concentration (0-1M) in buffer. Fractions were assayed for TG2 activity and analysed for the presence of TG2 antigen by SDS-PAGE and Western blotting using CUB7402.

The test system of assay [3] is NIH 3T3 cells. Nature of the assay: Detection of TG2 at cell surface (biotinylation), in ECM and in culture medium of transfected cells. The class given is cell-based, mouse. To be noted: transfected NIH 3T3 cells. As for the experimental part: Cell surface proteins were labelled by biotinylation as described previously (Wang et al., 2010). Briefly, cell monolayers were rinsed three times with ice-cold PBS pH 8.0 and labelled with 0.8 mM sulfo-NHS-LC-biotin dissolved in PBS pH 8.0 at 4° C. for 20 min. Cells were then washed with 50 mM Tris-HCl, pH 8.0 and lysed with 1% SDS at 4° C. in PBS pH8.0. Following denaturation at 95° C., cell lysates were clarified by centrifugation at 14,000×g at 20° C. and 200 μg of protein was incubated overnight at 4° C. with NEUTRAVIDIN® avidin protein-Agarose resin. After washing three times with PBS pH 8.0, the biotin-labelled proteins were dissolved in 2× Laemmli buffer separated by SDS-PAGE and subjected to Western blotting.
Following transfection, cells were incubated for 24 h with 10% (v/v) serum, which was replaced with 1% (v/v) serum and TG2 expression was allowed to proceed for a further 48 h. Proteins from 1 ml of medium were precipitated by the addition of ice cold 20% (w/v) trichloroacetic acid (TCA) to a final concentration of 10% (w/v) Pelleted proteins were then washed once with ice cold 10% (w/v) TCA, ethanol-acetone (1:1) and acetone, and resuspended in 2× Laemmli buffer (Sigma-Aldrich, UK) and analysed by SDS-PAGE and Western blot analysis using monoclonal anti-TG2 antibody (Cub7402). The remaining cells were detached with 2 mM EDTA in PBS, pH 7.4 and the ECM was extracted with 0.1% (w/v) deoxycholate in PBS, pH 7.4. The residual deoxycholate-insoluble ECM proteins were dissolved in 2× Laemmli buffer for further analysis by SDS-PAGE and Western blotting using Cub7402.

Turning to “GENPIYKSAVTTVVNPIYEGKRQIKIWFQNRRMKWKK (listed as Homo sapiens) [GK21, reference compound]”, the “effect of PKCα inhibitors on the compensatory effect of P1 peptide on RGD-induced loss of cell adhesion” value in assay [1] was “inhibition of the compensatory effect”.

“NPKFLKNA (listed as Homo sapiens) [fragment peptide derived from P1]”: in assay [1], the “effect on the compensatory effects of TG-FN on attachment and spreading in the presence of RGD” value was “could not abrogate”. In assay [1] (HOB cells, tested 100-400 μg/ml), the “concentration at which peptide was inhibitory to cell attachment and spreading” value is on record as “above 200 μg/ml”.

As for “HS2: TG2 mutant K205A, R209A (NPKFLKNAGRDCSRRSS)”, the “binding to heparin SEPHAROSE (in words)” value in assay [2] (compared with wt TG2) is recorded as “lost the capability to bind with high affinity to heparin”. In assay [2], the “NaCl concentration of optimum elution / major peak from heparin SEPHAROSE” value came out at 60 mM NaCl. In addition, in assay [3] (Western blot), the “presence in spent culture medium” value is reported as “detectable” and the “presence in the ECM” value is “not detectable”. In addition, the “presence on the cell surface” value in assay [3] (biotinylation and Western blot, vs wild-type TG2) is on record as “detected but in reduced amounts”.

For `Cn1c2ccccc2c2c3c(c4c5ccccc5n(CCC#N)c4c21)CNC3=O` [Go6976, reference compound], in assay [1], the “effect of PKCα inhibitors on the compensatory effect of P1 peptide on RGD-induced loss of cell adhesion” value is “inhibition of the compensatory effect”.

For the molecule “GRDCSRRSS (listed as Homo sapiens) [fragment peptide derived from P1]”, in assay [1], the “effect on the compensatory effects of TG-FN on attachment and spreading in the presence of RGD” value was “able to inhibit the compensatory effects of TG-FN on attachment and spreading, in a dose-dependent manner”.

B1: TG2: wild type human tissue transglutaminase expressed in transfected cells (protein)
chain: AEELVLERCDLELETNGRDHHTADLCREKLVVRRGQPFWLTLHFEGRNYEASVDSLTFSVVTGPAPSQEAGTKARFPLRDAVEEGDWTATVVDQQDCTLSLQLTTPANAPIGLYRLSLEASTGYQGSSFVLGHFILLFNAWCPADAVYLDSEEERQEYVLTQQGFIYQGSAKFIKNIPWNFGQFEDGILDICLILLDVNPKFLKNAGRDCSRRSSPVYVGRVVSGMVNCNDDQGVLLGRWDNNYGDGVSPMSWIGSVDILRRWKNHGCQRVKYGQCWVFAAVACTVLRCLGIPTRVVTNYNSAHDQNSNLLIEYFRNEFGEIQGDKSEMIWNFHCWVESWMTRPDLQPGYEGWQALDPTPQEKSEGTYCCGPVPVRAIKEGDLSTKYDAPFVFAEVNADVVDWIQQDDGSVHKSINRSLIVGLKISTKSVGRDEREDITHTYKYPEGSSEEREAFTRANHLNKLAEKEETGMAMRIRVGQSMNMGSDFDVFAHITNNTAEEYVCRLLLCARTVSYNGILGPECGTKYLLNLNLEPFSEKSVPLCILYEKYRDCLTESNLIKVRALLVEPVINSYLLAERDLYLENPEIKIRILGEPKQKRKLVAEVSLQNPLPVALEGCTFTVEGAGLTEEQKTVEIPDPVEAGEEVKVRMDLLPLHMGLHKLVVNFESDKLKAVKGFRNVIIGPA
In the case of B1, in assay [2] (0.5 mM GTP, compact conformation), the “NaCl concentration of major peak from heparin SEPHAROSE in the presence of GTP” value was “about 330 mM NaCl”. Also, the “NaCl concentration of major peak from heparin SEPHAROSE after reaction with inhibitor R281” value in assay [2] (0.5 mM R281, extended conformation) is reported as 250 mM NaCl. In assay [2], the “NaCl concentration of optimum elution / major peak from heparin SEPHAROSE” value turned out to be 330 mM NaCl.

B2: C277S: TG2 active site mutant, extended conformation (protein, UniProt P21980 2-687, looked up, variant C277S)
Protein-glutamine …: AEELVLERCDLELETNGRDHHTADLCREKLVVRRGQPFWLTLHFEGRNYEASVDSLTFSVVTGPAPSQEAGTKARFPLRDAVEEGDWTATVVDQQDCTLSLQLTTPANAPIGLYRLSLEASTGYQGSSFVLGHFILLFNAWCPADAVYLDSEEERQEYVLTQQGFIYQGSAKFIKNIPWNFGQFEDGILDICLILLDVNPKFLKNAGRDCSRRSSPVYVGRVVSGMVNCNDDQGVLLGRWDNNYGDGVSPMSWIGSVDILRRWKNHGCQRVKYGQSWVFAAVACTVLRCLGIPTRVVTNYNSAHDQNSNLLIEYFRNEFGEIQGDKSEMIWNFHCWVESWMTRPDLQPGYEGWQALDPTPQEKSEGTYCCGPVPVRAIKEGDLSTKYDAPFVFAEVNADVVDWIQQDDGSVHKSINRSLIVGLKISTKSVGRDEREDITHTYKYPEGSSEEREAFTRANHLNKLAEKEETGMAMRIRVGQSMNMGSDFDVFAHITNNTAEEYVCRLLLCARTVSYNGILGPECGTKYLLNLNLEPFSEKSVPLCILYEKYRDCLTESNLIKVRALLVEPVINSYLLAERDLYLENPEIKIRILGEPKQKRKLVAEVSLQNPLPVALEGCTFTVEGAGLTEEQKTVEIPDPVEAGEEVKVRMDLLPLHMGLHKLVVNFESDKLKAVKGFRNVIIGPA
Regarding B2, the “NaCl concentration of optimum elution / major peak from heparin SEPHAROSE” value in assay [2] was 250 mM NaCl.

The values are drawn from patent publication US9657110B2, “Polypeptides and use thereof” (ASTON UNIVERSITY, priority 2011, dated 2017).
